The results in this text go back to patent US20170166555A1, “FUNCTIONALISED AND SUBSTITUTED INDOLES AS ANTI-CANCER AGENTS” (Novogen Limited, priority 2013, published 2017).

Like-named read-outs stand apart in the source and are kept apart here.

Common to all, as to experiment: Anti-proliferative assay, cell-titre luminescent reagent, 72 h (GVK-BIO)
Holding throughout (assay type): cell-based

The test system of experiment [1] is A549 non-small cell lung carcinoma cells. Conditions: Homo sapiens, read-out: IC50/μM Lung (NSLC) A549. How it is done:
(§1) The ability of compounds 4001, 4002, 4008, 4010, 4011, 4013-4015, 4018, 4026, 4045-4113 and 4115-4127 to inhibit the proliferation of cancer cells representative of neuroblastoma, melanoma, prostate cancer, colorectal cancer, non-small cell lung carcinoma, and triple negative breast cancer was assessed. These studies were conducted by contract research (GVK-BIO). Briefly, a pre-determined number of cells as calculated from cell growth assays for each of the cell lines employed were seeded into their respective culture medium (using ATCC culture parameters—http://www.atcc.org) and cultured for 24 h at 37° C. and 5% CO2 in 96-well culture plates. Once attached, each cell line was then exposed to various concentrations of each respective analogue (30, 3, 0.3 and 0.03 μM for compounds in Tables 2, 3 and 4; 30, 10, 3, 1, 0.3 and 0.1 μM for compounds in Table 5), cultured for a further 72 h and exposed to cell-titre luminescent reagent (100 μL/well) for a further 30 min). Luminescence was captured using an EnVision multilabel reader and the data for each analogue concentration compared against no treatment control. For compounds in Tables 2-4, semi-log plots of Percent of Control versus concentration were prepared and IC50 determined using linear regression analysis. For compounds in Table 5, cell viability was normalized to control (vehicle alone) and dose-response curves, and half maximal effective concentration (EC50) values were determined using Graph Pad Prism 6 (nonlinear regression sigmoidal dose-response variable slope).

The test system of experiment [2] is CaCo2 colorectal cancer cells. How it is done: as §1
Experiment [3] relates to DU145 prostate cancer cells. Conditions: Homo sapiens. How it is done: as §1
The test system of experiment [4] is MDA-MB-231 triple negative breast cancer cells. Conditions: Homo sapiens. On the procedure:
as §1

The test system of experiment [5] is PC3 prostate cancer cells. How it is done:
as §1

Another experiment has as its system SK-Mel-28 melanoma cells. To be noted: Homo sapiens. On the procedure:
as §1

Experiment [6] concerns SK-N-SH neuroblastoma cells. Conditions: Homo sapiens. How it is done:
as §1

Setting [7] is: A549, 72 h, 30, 3, 0.3 and 0.03 μM, linear regression (Tables 2-4).
[8] abbreviates: Homo sapiens, Caco-2, 72 h, 30, 3, 0.3 and 0.03 μM, linear regression (Tables 2-4).
Setting [9] is: DU-145, 72 h, 30, 3, 0.3 and 0.03 μM, linear regression (Tables 2-4).
Setting [10] is: MDA-MB-231, 72 h, 30, 3, 0.3 and 0.03 μM, linear regression (Tables 2-4).
[11] abbreviates: 30, 3, 0.3 and 0.03 μM, linear regression (Tables 2-4).
Where [12] appears, read: SK-MEL-28, 72 h, 30, 3, 0.3 and 0.03 μM, linear regression (Tables 2-4).
[13] abbreviates: SK-N-SH, 30, 3, 0.3 and 0.03 μM, linear regression (Tables 2-4).
Setting [14] is: A549, 72 h, 30, 10, 3, 1, 0.3 and 0.1 μM, nonlinear regression (Table 5).
Where [15] appears, read: Homo sapiens, Caco-2, 72 h, 30, 10, 3, 1, 0.3 and 0.1 μM, nonlinear regression (Table 5).
Where [16] appears, read: DU-145, 72 h, 30, 10, 3, 1, 0.3 and 0.1 μM, nonlinear regression (Table 5).
[17] abbreviates: MDA-MB-231, 72 h, 30, 10, 3, 1, 0.3 and 0.1 μM, nonlinear regression (Table 5).
Setting [18] is: 30, 10, 3, 1, 0.3 and 0.1 μM, nonlinear regression (Table 5).
Where [19] appears, read: SK-MEL-28, 72 h, 30, 10, 3, 1, 0.3 and 0.1 μM, nonlinear regression (Table 5).
Setting [20] is: SK-N-SH, 30, 10, 3, 1, 0.3 and 0.1 μM, nonlinear regression (Table 5).

For the compound `Cc1c(C)n(CCCN(C)C)c2ccc(Oc3cccc(C(=O)Nc4ccc(F)cc4)c3)cc12` [Compound 4061], the IC50 in experiment [1] (setting [7]) turned out to be 3 µM; in experiment [2] (setting [8]) it was 3.7 µM; in experiment [3] (setting [9]), 3 µM; in experiment [4] (setting [10]), 3.2 µM; in experiment [5] (setting [11]), 2.2 µM; in the experiment with SK-Mel-28 melanoma cells (setting [12]), 2.5 µM. In experiment [6] (setting [13]), the IC50 turned out to be 2.3 µM.
`COc1ccc(NC(=O)c2cccc(Oc3ccc4c(c3)c(C)c(C)n4CCCN(C)C)c2)cc1` [Compound 4062]: the IC50 in experiment [1] (setting [7]) is 2.3 µM; in experiment [2] (setting [8]), 6 µM; in experiment [3] (setting [9]), 4.4 µM; in experiment [4] (setting [10]), 3.7 µM; in experiment [5] (setting [11]), 9 µM; in the experiment on SK-Mel-28 melanoma cells (setting [12]), 4.3 µM. Besides, the IC50 in experiment [6] (setting [13]) came to 4.8 µM.
For `Cc1c(C)n(CCCN(C)C)c2ccc(Oc3cccc(C(=O)Nc4ccc5c(c4)OCO5)c3)cc12` [Compound 4063, N-(benzo[d][1,3]dioxol-5-yl)-3-((1-(37(dimethylamino)propyl)-2,3-dimethyl-1H-indol-5-yl)oxy)benzamide], the IC50 in experiment [1] (setting [7]) was 3 µM; in experiment [2] (setting [8]), 9.6 µM; in experiment [3] (setting [9]), 3.6 µM; in experiment [4] (setting [10]) it was 3.7 µM; in experiment [5] (setting [11]), 4.9 µM; in the experiment with SK-Mel-28 melanoma cells (setting [12]), 3.8 µM. Further, in experiment [6] (setting [13]), the IC50 came out at 4.2 µM.
As to `Cc1c(C)n(CCCN(C)C)c2ccc(Oc3cccc(C(=O)Nc4cccc(F)c4)c3)cc12` [Compound 4064], the IC50 came out at 3.5 µM in experiment [1] (setting [7]); 3.8 µM in experiment [2] (setting [8]); 3.4 µM in experiment [3] (setting [9]); 3.3 µM in experiment [4] (setting [10]); 2.6 µM in experiment [5] (setting [11]); 2.7 µM in the experiment on SK-Mel-28 melanoma cells (setting [12]). Also, in experiment [6] (setting [13]), the IC50 was 2.4 µM.
With `COc1cccc(NC(=O)c2cccc(Oc3ccc4c(c3)c(C)c(C)n4CCCN(C)C)c2)c1` [Compound 4065, 3-((1-(3-(dimethylamino)propyl)-2,3-dimethyl-1H-indol-5-yl)oxy)-N-(3-methoxyphenyl)benzamide], the IC50 in experiment [1] (setting [14]) was 4.6 µM; in experiment [2] (setting [15]), 6.5 µM; in experiment [3] (setting [16]), 4.2 µM; in experiment [4] (setting [17]), 5 µM; in experiment [5] (setting [18]), 6.5 µM; with SK-Mel-28 melanoma cells (setting [19]) it was 5 µM. Moreover, the IC50 in experiment [6] (setting [20]) amounted to 5.2 µM.
With `Cc1c(C)n(CCCN(C)C)c2ccc(Oc3cccc(C(=O)Nc4ccccc4)c3)cc12` [Compound 4066, 3-((1-(3-(dimethylamino)propyl)-2,3-dimethyl-1H-indol-5-yl)oxy)-N-phenylbenzamide], the IC50 in experiment [1] (setting [14]) is 8.5 µM; in experiment [2] (setting [15]), 14.8 µM; in experiment [3] (setting [16]), 6.9 µM; in experiment [4] (setting [17]) it was 11.4 µM; in experiment [5] (setting [18]), 10 µM; with SK-Mel-28 melanoma cells (setting [19]), 4.9 µM. The compound also displayed an IC50 in experiment [6] (setting [20]) of 5.4 µM.
On to `CN(C)CCCn1ccc2cc(Nc3cccc(C(=O)Nc4ccc(F)cc4)c3)ccc21` [Compound 4067, 3-((1-(3-(dimethylamino)propyl)-1H-indol-5-yl)amino)-N-(4-fluorophenyl)benzamide], for which the IC50 in experiment [1] (setting [7]) was 4 µM; in experiment [2] (setting [11]) it was 4.3 µM; in experiment [3] (setting [9]) it was 4.3 µM; in experiment [4] (setting [10]), 3.8 µM; in experiment [5] (setting [11]) it was 4.3 µM; in the experiment on SK-Mel-28 melanoma cells (setting [12]), 2.5 µM. In experiment [6] (setting [13]), the IC50 turned out to be 3.3 µM.
Regarding `COc1ccc(NC(=O)c2cccc(Nc3ccc4c(ccn4CCCN(C)C)c3)c2)cc1` [Compound 4068, 3-((1-(3-(dimethylamino)propyl)-1H-indol-5-yl)amino)-N-(4-methoxyphenyl)benzamide], the IC50 in experiment [1] (setting [7]) was 2.9 µM; in experiment [2] (setting [8]) it was above 30 µM; in experiment [3] (setting [9]), 5.4 µM; in experiment [4] (setting [10]), 2.8 µM; in experiment [5] (setting [11]) it was 14.6 µM; with SK-Mel-28 melanoma cells (setting [12]), 2.7 µM. Moreover, the IC50 in experiment [6] (setting [13]) came to 3.5 µM.
For the compound `CN(C)CCCn1ccc2cc(Nc3cccc(C(=O)Nc4ccc5c(c4)OCO5)c3)ccc21` [Compound 4069, N-(benzo[d][1,3]dioxol-5-yl)-3-((1-(3-(dimethylamino)propyl)-1H-indol-5-yl)amino)benzamide], the IC50 in experiment [1] (setting [7]) was 4.2 µM; in experiment [2] (setting [8]) it was above 30 µM; in experiment [3] (setting [9]) it was 4.4 µM; in experiment [4] (setting [10]), 4.2 µM; in experiment [5] (setting [11]) it was 9.9 µM; in the experiment with SK-Mel-28 melanoma cells (setting [12]) it was 2.5 µM. In experiment [6] (setting [13]), this compound showed an IC50 of 3.4 µM.
Take `CN(C)CCCn1ccc2cc(Nc3cccc(C(=O)Nc4cccc(F)c4)c3)ccc21` [Compound 4070, 3-((1-(3-(dimethylamino)propyl)-1H-indol-5-yl)amino)-N-(3-fluorophenyl)benzamide]: the IC50 in experiment [1] (setting [7]) worked out at 2.3 µM; in experiment [2] (setting [8]), 1.7 µM; in experiment [3] (setting [9]), 3.1 µM; in experiment [4] (setting [10]) it was 1.7 µM; in experiment [5] (setting [11]), 2.9 µM; in the experiment with SK-Mel-28 melanoma cells (setting [12]), 2.5 µM. In experiment [6] (setting [13]), this compound registered an IC50 of 2.2 µM.
Consider `COc1cccc(NC(=O)c2cccc(Nc3ccc4c(ccn4CCCN(C)C)c3)c2)c1` [Compound 4071], for which the IC50 is 4 µM in experiment [1] (setting [7]); 12 µM in experiment [2] (setting [8]); 4.7 µM in experiment [3] (setting [9]); 3.4 µM in experiment [4] (setting [10]); 7.6 µM in experiment [5] (setting [11]); 4.9 µM in the experiment on SK-Mel-28 melanoma cells (setting [12]). This compound also displayed an IC50 in experiment [6] (setting [13]) of 3.7 µM.
With `Cc1c(C)n(CCCN(C)C)c2ccc(Nc3cccc(C(=O)Nc4ccc(F)cc4)c3)cc12` [Compound 4072, 3-((1-(3-(dimethylamino)propyl)-2,3-dimethyl-1H-indol-5-yl)amino)-N-(4-fluorophenyl)benzamide], the IC50 amounted to 1.9 µM in experiment [1] (setting [7]); 2 µM in experiment [2] (setting [8]); 2.9 µM in experiment [3] (setting [9]); 1.7 µM in experiment [4] (setting [10]); 3.8 µM in experiment [5] (setting [11]); 3 µM with SK-Mel-28 melanoma cells (setting [12]). This compound yielded an IC50 in experiment [6] (setting [13]) of 1.7 µM.
Consider `COc1ccc(NC(=O)c2cccc(Nc3ccc4c(c3)c(C)c(C)n4CCCN(C)C)c2)cc1` [Compound 4073, 3-((1-(3-(dimethylamino)propyl)-2,3-dimethyl-1H-indol-5-yl)amino)-N-(4-methoxyphenyl)benzamide], for which the IC50 in experiment [1] (setting [7]) was 3.9 µM; in experiment [2] (setting [8]), 2.8 µM; in experiment [3] (setting [9]), 4 µM; in experiment [4] (setting [10]) it was 3.4 µM; in experiment [5] (setting [11]), 4.2 µM; in the experiment with SK-Mel-28 melanoma cells (setting [12]), 3.1 µM. Besides, the IC50 in experiment [6] (setting [13]) amounted to 2.6 µM.
Consider `Cc1c(C)n(CCCN(C)C)c2ccc(Nc3cccc(C(=O)Nc4ccc5c(c4)OCO5)c3)cc12` [Compound 4074, N-(benzo[d][1,3]dioxol-5-yl)-3-((1-(3-(dimethylamino)propyl)-2,3-dimethyl-1H-indol-5-yl)amino)benzamide], for which the IC50 in experiment [1] (setting [7]) turned out to be 2.5 µM; in experiment [2] (setting [8]) it was 2.4 µM; in experiment [3] (setting [9]) it was 2.8 µM; in experiment [4] (setting [10]), 1.5 µM; in experiment [5] (setting [11]), 22.7 µM; in the experiment with SK-Mel-28 melanoma cells (setting [12]) it was 2.7 µM. Also, the IC50 in experiment [6] (setting [13]) stood at 1.3 µM.
For `Cc1c(C)n(CCCN(C)C)c2ccc(Nc3cccc(C(=O)Nc4cccc(F)c4)c3)cc12` [Compound 4075, 3-((1-(3-(dimethylamino)propyl)-2,3-dimethyl-1H-indol-5-yl)amino)-N-(3-fluorophenyl)benzamide], the IC50 in experiment [1] (setting [7]) is 2.9 µM; in experiment [2] (setting [8]) it was 3.3 µM; in experiment [3] (setting [9]), 3 µM; in experiment [4] (setting [10]) it was 2.6 µM; in experiment [5] (setting [11]) it was 4.5 µM; in the experiment on SK-Mel-28 melanoma cells (setting [12]), 2.7 µM. Also, the IC50 in experiment [6] (setting [13]) is 2.6 µM.
With `COc1cccc(NC(=O)c2cccc(Nc3ccc4c(c3)c(C)c(C)n4CCCN(C)C)c2)c1` [Compound 4076, 3-((1-(3-(dimethylamino)propyl)-2,3-dimethyl-1H-indol-5-yl)amino)-N-(3-methoxyphenyl)benzamide], the IC50 is 1.8 µM in experiment [1] (setting [7]); 2.9 µM in experiment [2] (setting [8]); 3.2 µM in experiment [3] (setting [9]); 1.7 µM in experiment [4] (setting [10]); 3.7 µM in experiment [5] (setting [11]); 2.1 µM in the experiment with SK-Mel-28 melanoma cells (setting [12]). In experiment [6] (setting [13]), this compound displayed an IC50 of 2.8 µM.
